Target: T1, human μ-opiate receptor (Homo sapiens, UniProt P35372)
T1 construct: purchased Nen company, Zaventem, Belgium RB-HOM; host or cells: CHO-K1 cells (membrane preparation)
Test: Affinity for the human μ-opiate receptor ([3H]-naloxone displacement, SPA, CHO-K1 membrane preparation)
Conditions: test substance 1 μmole/l; displacement of 1 nmole/l [3H]-naloxone; percentage inhibition of the specific binding
Protocol: Method for Determining the Affinity for the Human μ-Opiate Receptor
The receptor affinity for the human μ-opiate receptor is determined in a homogeneous batch in microtiter plates. For this purpose dilution series of the substances to be tested are incubated for 90 minutes at room temperature with a receptor membrane preparation (15-40 μg protein/250 μl incubation batch) of CHO-K1 cells, which express the human μ-opiate receptor (RB-HOM receptor membrane preparation from the Nen company, Zaventem, Belgium), in the presence of 1 nmole/l of the radioactive ligand [^3H]-naloxone (NET719, Nen company, Zaventem, Belgium) and 1 mg WGA-SPA beads (wheat germ agglutinin SPA beads from Amersham/Pharmacia, Freiburg, Germany) in a total volume of 250 μl. 50 mmole/l of Tris-HCl supplemented with 0.05% sodium azide and with 0.06% bovine serum albumin is used as incubation buffer. In order to determine the non-specific binding, 25 μmole/l of naloxone is additionally added. After the end of the 90 minutes' incubation time the microtiter plates are centrifuged for 20 minutes at 1000 g and the radioactivity is measured in a beta counter (Microbeta-Trilux, PerkinElmer Wallac, Freiburg, Germany). The percentage displacement of the radioactive ligand from its binding to the human μ-opiate receptor at a concentration of the test substances of 1 μmole/l is determined and is given as percentage inhibition of the specific binding.

T1 sequence (P35372 whole entry): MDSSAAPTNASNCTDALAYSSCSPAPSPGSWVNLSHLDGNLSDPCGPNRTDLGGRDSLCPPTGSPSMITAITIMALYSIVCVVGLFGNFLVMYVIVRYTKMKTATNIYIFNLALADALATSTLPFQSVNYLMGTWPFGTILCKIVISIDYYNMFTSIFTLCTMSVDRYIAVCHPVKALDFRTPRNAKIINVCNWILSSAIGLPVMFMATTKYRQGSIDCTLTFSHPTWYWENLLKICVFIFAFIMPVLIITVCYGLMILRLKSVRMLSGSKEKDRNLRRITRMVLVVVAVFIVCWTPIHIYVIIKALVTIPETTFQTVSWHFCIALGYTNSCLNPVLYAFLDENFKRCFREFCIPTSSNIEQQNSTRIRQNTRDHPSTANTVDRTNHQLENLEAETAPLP

SMILES | μ-opioid receptor, % inhibition [1 μM] [%]
CN(Cc1ccccc1)c1oc(C(C2CCC(C(c3ccc(Cl)cc3)N(C)C)CC2)N(C)c2ccccc2)nc1Cc1ccccc1 (centres unmarked) [compound 22, Benzyl-{4-benzyl-2-[{4-[(4-chlorophenyl)-dimethylaminomethyl]-cyclohexyl}-(methylphenylamine)-methyl]-oxazol-5-yl}-methylamine] | 64
CN(CCc1ccccc1)c1oc(C(C2CCC(C(c3ccc(F)cc3)N(C)C)CC2)N(C)c2ccccc2)nc1Cc1ccccc1 (centres unmarked) [compound 38, {4-benzyl-2-[{4-[dimethylamino-(4-fluorophenyl)-methyl]-cyclohexyl}-(methylphenylamine)-methyl]-oxazol-5-yl}-methylphenethylamine] | 62

Same assay, conditions: test substance 1 μmole/l; displacement of 1 nmole/l [3H]-naloxone; percentage inhibition of the specific binding; read-out: μ-opioid receptor, % inhibition [1 μM]

SMILES | inhibition at 1 µM [%]
CN(C)C(c1ccc(F)cc1)C1CCC(C(c2nc(Cc3ccccc3)c(N3CCCC3)o2)N2CCCCC2)CC1 (centres unmarked) [compound 17, [{4-[(4-benzyl-5-pyrrolidin-1-yl-oxazol-2-yl)-piperidin-1-yl-methyl]-cyclohexyl}-(4-fluorophenyl)-methyl]-dimethylamine] | 76
CN(C)C(c1ccc(F)cc1)C1CCC(C(c2nc(Cc3ccccc3)c(N3CCOCC3)o2)N(C)c2ccccc2)CC1 (centres unmarked) [compound 18, ((4-benzyl-5-morpholin-4-yl-oxazol-2-yl)-{4-[dimethylamino-(4-fluorophenyl)-methyl]-cyclohexyl}-methyl)-methylphenylamine] | 65
CC1CCN(c2oc(C(C3CCC(C(c4ccc(F)cc4)N(C)C)CC3)N(C)c3ccccc3)nc2Cc2ccccc2)CC1 (centres unmarked) [compound 19, ([4-benzyl-5-(4-methylpiperidin-1-yl)-oxazol-2-yl]-{4-[dimethylamino-(4-fluorophenyl)-methyl]-cyclohexyl}-methyl)-methylphenylamine] | 63
CCN(CC)C(c1nc(Cc2ccccc2)c(N2CCC(C)CC2)o1)C1CCC(C(c2ccc(Cl)cc2)N(C)C)CC1 (centres unmarked) [compound 20, ([4-benzyl-5-(4-methylpiperidin-1-yl)-oxazol-2-yl]-{4-[(4-chlorophenyl)-dimethylaminomethyl]-cyclohexyl}-methyl)-diethylamine] | 63
CCN(CC)C(c1nc(Cc2ccccc2)c(N(C)Cc2ccccc2)o1)C1CCC(C(c2ccc(Cl)cc2)N(C)C)CC1 (centres unmarked) [compound 21, Benzyl-[4-benzyl-2-({4-[(4-chlorophenyl)-dimethylaminomethyl]-cyclohexyl}-diethylaminomethyl)-oxazol-5-yl]-methylamine] | 72
CN(C)C(c1cccs1)C1CCC(C(c2nc(Cc3ccccc3)c(N3CCC(Cc4ccccc4)CC3)o2)N2CCCCC2)CC1 (centres unmarked) [compound 23, [(4-{[4-benzyl-5-(4-benzyl-piperidin-1-yl)-oxazol-2-yl]-piperidin-1-yl-methyl}-cyclohexyl)-thiophen-2-yl-methyl]-dimethylamine] | 70
CC1CCN(c2oc(C(C3CCC(C(c4cccs4)N(C)C)CC3)N3CCCCC3)nc2Cc2ccccc2)CC1 (centres unmarked) [compound 24, [(4-{[4-benzyl-5-(4-methylpiperidin-1-yl)-oxazol-2-yl]-piperidin-1-yl-methyl}-cyclohexyl)-thiophen-2-yl-methyl]-dimethylamine] | 70
CN(Cc1ccccc1)c1oc(C(C2CCC(C(c3cccs3)N(C)C)CC2)N2CCCCC2)nc1Cc1ccccc1 (centres unmarked) [compound 25, Benzyl-(4-benzyl-2-{[4-(dimethylamino-thiophen-2-yl-methyl)-cyclohexyl]-piperidin-1-yl-methyl}-oxazol-5-yl)-methylamine] | 80
CN(C)C(c1cccs1)C1CCC(C(c2nc(Cc3ccccc3)c(N3CCN(c4ccccc4)CC3)o2)N2CCCCC2)CC1 (centres unmarked) [compound 26, [(4-{[4-benzyl-5-(4-phenylpiperazin-1-yl)-oxazol-2-yl]-piperidin-1-yl-methyl}-cyclohexyl)-thiophen-2-yl-methyl]-dimethylamine] | 85
CCN(CC)C(c1nc(Cc2ccccc2)c(N2CCC(Cc3ccccc3)CC2)o1)C1CCC(C(c2cccs2)N(C)C)CC1 (centres unmarked) [compound 27, {[4-benzyl-5-(4-benzyl-piperidin-1-yl)-oxazol-2-yl]-[4-(dimethylamino-thiophen-2-yl-methyl)-cyclohexyl]-methyl}-diethylamine] | 78
CCN(CC)C(c1nc(Cc2ccccc2)c(N2CCN(Cc3ccccc3)CC2)o1)C1CCC(C(c2cccs2)N(C)C)CC1 (centres unmarked) [compound 28, {[4-benzyl-5-(4-benzyl-piperazin-1-yl)-oxazol-2-yl]-[4-(dimethylamino-thiophen-2-yl-methyl)-cyclohexyl]-methyl}-diethylamine] | 72
CCN(CC)C(c1nc(Cc2ccccc2)c(N2CCC(C)CC2)o1)C1CCC(C(c2cccs2)N(C)C)CC1 (centres unmarked) [compound 29, {[4-benzyl-5-(4-methylpiperidin-1-yl)-oxazol-2-yl]-[4-(dimethylamino-thiophen-2-yl-methyl)-cyclohexyl]-methyl}-diethylamine] | 95
CCN(CC)C(c1nc(Cc2ccccc2)c(N(C)Cc2ccccc2)o1)C1CCC(C(c2cccs2)N(C)C)CC1 (centres unmarked) [compound 30, Benzyl-(4-benzyl-2-{diethylamino-[4-(dimethylaminothiophen-2-yl-methyl)-cyclohexyl]-methyl}-oxazol-5-yl)-methylamine] | 92
CCN(CC)C(c1nc(Cc2ccccc2)c(N2CCN(c3ccccc3)CC2)o1)C1CCC(C(c2cccs2)N(C)C)CC1 (centres unmarked) [compound 31, {[4-benzyl-5-(4-phenylpiperazin-1-yl)-oxazol-2-yl]-[4-(dimethylamino-thiophen-2-yl-methyl)-cyclohexyl]-methyl}-diethylamine] | 62
CN(C)C(c1cccs1)C1CCC(C(c2nc(Cc3ccccc3)c(N3CCC(Cc4ccccc4)CC3)o2)N2CCN(Cc3ccccc3)CC2)CC1 (centres unmarked) [compound 32, ({4-[[4-benzyl-5-(4-benzylpiperidin-1-yl)-oxazol-2-yl]-(4-benzylpiperazin-1-yl)-methyl]-cyclohexyl}-thiophen-2-yl-methyl)-dimethylamine] | 75
CC1CCCN(c2oc(C(C3CCC(C(c4ccc(F)cc4)N(C)C)CC3)N3CCCCC3)nc2Cc2ccccc2)C1 (centres unmarked) [compound 33, [(4-{[4-benzyl-5-(3-methylpiperidin-1-yl)-oxazol-2-yl]-piperidin-1-yl-methyl}-cyclohexyl)-(4-fluorophenyl)-methyl]-dimethylamine] | 65
CCN(CC)C(c1nc(Cc2ccccc2)c(N(C)CCc2ccccc2)o1)C1CCC(C(c2ccc(F)cc2)N(C)C)CC1 (centres unmarked) [compound 34, [4-benzyl-2-(diethylamino-{4-[dimethylamino-(4-fluorophenyl)-methyl]-cyclohexyl}-methyl)-oxazol-5-yl]-methylphenethylamine] | 84
CCN(CC)c1oc(C(C2CCC(C(c3ccc(F)cc3)N(C)C)CC2)N(CC)CC)nc1Cc1ccccc1 (centres unmarked) [compound 35, [4-benzyl-2-(diethylamino-{4-[dimethylamino-(4-fluorophenyl)-methyl]-cyclohexyl}-methyl)-oxazol-5-yl]-diethylamine] | 61
CCN(CC)C(c1nc(Cc2ccccc2)c(N2CCCC(C)C2)o1)C1CCC(C(c2ccc(F)cc2)N(C)C)CC1 (centres unmarked) [compound 36, ([4-benzyl-5-(3-methylpiperidin-1-yl)-oxazol-2-yl]-{4-[dimethylamino-(4-fluorophenyl)-methyl]-cyclohexyl}-methyl)-diethylamine] | 69
CC1CC(C)CN(c2oc(C(C3CCC(C(c4ccc(F)cc4)N(C)C)CC3)N(C)c3ccccc3)nc2Cc2ccccc2)C1 (centres unmarked) [compound 37, ([4-benzyl-5-(3,5-dimethylpiperidin-1-yl)-oxazol-2-yl]-{4-[dimethylamino-(4-fluorophenyl)-methyl]-cyclohexyl}-methyl)-methylphenylamine] | 68
CCN(CC)c1oc(C(C2CCC(C(c3ccc(Cl)cc3)N(C)C)CC2)N2CCCCC2)nc1Cc1ccccc1 (centres unmarked) [compound 39, [4-benzyl-2-({4-[(4-chlorophenyl)-dimethylaminomethyl]-cyclohexyl}-piperidin-1-yl-methyl)-oxazol-5-yl]-diethylamine] | 75
CC1CCCN(c2oc(C(C3CCC(C(c4ccc(Cl)cc4)N(C)C)CC3)N3CCCCC3)nc2Cc2ccccc2)C1 (centres unmarked) [compound 40, [(4-{[4-benzyl-5-(3-methylpiperidin-1-yl)-oxazol-2-yl]-piperidin-1-yl-methyl}-cyclohexyl)-(4-chlorophenyl)-methyl]-dimethylamine] | 60
CCN(CC)C(c1nc(Cc2ccccc2)c(N2CC(C)CC(C)C2)o1)C1CCC(C(c2ccc(Cl)cc2)N(C)C)CC1 (centres unmarked) [compound 41, ([4-benzyl-5-(3,5-dimethylpiperidin-1-yl)-oxazol-2-yl]-{4-[(4-chlorophenyl)-dimethylaminomethyl]-cyclohexyl}-methyl)-diethylamine] | 64
CC1CC(C)CN(c2oc(C(C3CCC(C(c4ccc(Cl)cc4)N(C)C)CC3)N(C)c3ccccc3)nc2Cc2ccccc2)C1 (centres unmarked) [compound 42, ([4-benzyl-5-(3,5-dimethylpiperidin-1-yl)-oxazol-2-yl]-{4-[(4-chlorophenyl)-dimethylaminomethyl]-cyclohexyl}-methyl)-methylphenylamine] | 79
